Test results published in US20250333389A1, “PHARMACEUTICAL FOR THE INHIBITION OF CELLULAR PROTON PUMPS” (AquaRemedi Pharmaceuticals INC, priority 2024, published 2025).
Entries after “also recorded” stand apart in the source; their conditions may differ. Like-named read-outs stand apart in the source and are kept apart here.

Key:
human Hv1 channel [1] = target: T1, human Hv1 channel (Homo sapiens, UniProt Q96D96); assay: Whole cell patch clamp recording of Hv1 proton currents in transfected HEK293T cells; assay type: cell-based; conditions: calculated as Ki=Koff/Kon, read-out: inhibition constant Ki for Hv1 channels
T1 construct: expressed in transfected cells; host or cells: HEK293T
T1 sequence (Q96D96 1-273): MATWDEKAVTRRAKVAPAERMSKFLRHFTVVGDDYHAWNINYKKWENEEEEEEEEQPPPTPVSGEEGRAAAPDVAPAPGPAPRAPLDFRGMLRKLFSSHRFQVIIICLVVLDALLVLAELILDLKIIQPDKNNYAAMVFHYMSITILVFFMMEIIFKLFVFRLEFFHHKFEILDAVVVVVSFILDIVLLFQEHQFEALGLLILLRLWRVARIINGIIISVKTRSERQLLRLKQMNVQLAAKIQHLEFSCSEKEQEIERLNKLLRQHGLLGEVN

human Hv1 channel [2] = target: T1, human Hv1 channel; assay: as above; assay type: cell-based; conditions: for V1/2 shift of G-V curve: Boltzmann fit; for pore blocker strength for Hv1 channel (in words): conclusion from patch clamp data
From the text: For conducting experiments, we used HEK293T cells. The HEK293T cells were purchased from American Type Culture Collection (ATCC). For cell culture, the HEK293T cells were maintained in ATTC's Dulbecco's Modified Eagle's Medium (DMEM) supplemented with a 10% fetal bovine serum (FBS 10%) and 1% penicillin and streptomycin. Plasmids were transfected into cells using a transfection reagent, Lipofectamine™ 2000 according to the manufacturer's instructions (Life Technologies). Experiments were performed 24-48 hours post-transfection.
For the experimental studies, similar techniques as utilized by Zhao et. al is used in this invention. (Zhao et al., Role of human Hv1 channels in sperm capacitation and white blood cell respiratory burst established by a designed peptide inhibitor, Proc Natl Acad Sci USA. 2018, PMID: 30478045, PMCID: PMC6294887).
In the present invention, a Whole Cell patch clamp technique was utilized to study the Hv1 proton currents. The proton currents passed by Hv1 were recorded in Whole Cell mode using an Axon™ Axopatch™ 200B microelectrode amplifier. Stimulation and data collection were performed by a high-resolution, low-noise digitizer, Digidata 1322A, manufactured by Axon Instruments, Inc.) and Axon™ pCLAMP™ 10 Electrophysiology Data Acquisition & Analysis Software (released by Molecular Devices). Cells were perfused with an external bath solution comprised of a zwitterionic sulfonic acid buffering agent (100 mM HEPES), 100 mM NaCl, and 10 mM glucose at pH 7.5. During the patch clamp recording, the patch pipettes with a resistance between 3 and 5 MΩ were filled with 100 mM Bis-Tris buffer, 100 mM NaCl, and 10 mM glucose at pH 6.0. The sampling frequency was 10 kHz and the signals were filtered at 1 KHz.
Fractional unblocked current was assessed at the end of the test pulse.
Dose-response curves (the time course for block and unblock of Hv1 as shown in FIG. 9) show the fractional unblocked current, Icompound/Icontrol, versus toxin concentration. The curves were fit to the Hill equation, Fun=(1+([compound]/Ki)h)−1), wherein the [compound] is the effective compound concentration, Fun is the fraction of unblocked current at equilibrium. Ki is the inhibition constant and h is the Hill coefficient.

[3] = 100 nM compound, at −20 mV, holding −60 mV

Structure (SMILES)	Ki (human Hv1 channel [1]) [nM]	V1/2 shift of G-V curve (human Hv1 channel [2]; 10 μM compound, shift to the left) [mV]	block of Hv1 current (human Hv1 channel [2]; 10 μM compound, at −20 mV, holding −60 mV) [%]	pore blocker strength for Hv1 channel (in words) (human Hv1 channel [2])	Ki (human Hv1 channel [1]; I-V plot, −20 mV) [nM]	time course of block (washin) (human Hv1 channel [2]; 100 nM applied to Hv1 channels)	V1/2 shift of G-V curve (human Hv1 channel [2]; 100 nM compound)	block of Hv1 channel current (human Hv1 channel [2]; [3]) [%]	time course of unblock (washout) (human Hv1 channel [2]; washed away with isotonic saline)
C=C[C@@H]1CS[C@H](c2ccccc2)N1C(=O)OC(C)(C)C [Original Compound, (2R,4R)-tert-butyl 2Phenyl-4-vinylthiazolidine-3-carboxylate]	3000	~15	20	weak pore blocker	–	–	–	–	–
CC(C)(C)OC(=O)N1[C@H](CO)CS[C@@H]1c1ccccc1 [S1, (2R,4R)-tert-butyl 4-(hydroxymethyl)-2-Phenylthiazolidine-3-carboxylate]	–	–	–	strong nano-molar pore blocker; also recorded: relatively strong pore blocker	3	blocks the channel current immediately	about 41 mV	92	the current resumes
O=C(O)[C@@H]1CS[C@H](c2ccccc2)N1 [S2, (2R,4R)-2-phenylthiazolidine-4-carboxylic acid]	–	–	–	strong nano-molar pore blocker	20	–	about 35 mV	85	–
